Assay results: ChEMBL document CHEMBL3507680, “University of Dundee, Gates Library screen for HepG2 cell viability”

Experiment: Human HepG2 cell viability assay in 384 well format
Assay type: toxicity, cell-based
Set-up: dose 125 nL, time 70.5 hour; concentration not given beside the values
Conditions: HepG2 cells, read-out: Inhibition

| Compound | cytotoxicity at 70.5 h [%] |
| --- | --- |
| Cc1cc(CN2CCC(CNS(=O)(=O)c3ccccc3F)CC2)c(C)o1 | 37.7 |
| CCOc1ccc(S(=O)(=O)NCCc2ccc(N(C)C)cc2)cc1C | -3.6 |
| CCOc1ccc(S(=O)(=O)NCCCc2ccc(N(C)C)cc2)cc1C | -1.63 |
| O=C(CCc1ccccc1)NCC1CCN(Cc2ccccc2)CC1 | 0.0668 |
| O=C(Cc1ccccc1Cl)NCC1CCN(Cc2ccsc2)CC1 | -5.31 |
| O=C(NCc1ccccc1)NCC1CCN(Cc2ccsc2)CC1 | -7.87 |
| O=C(NCC1CCN(c2ncccn2)CC1)c1cnccn1 | -12.6 |
| CS(=O)(=O)N1CCC(CNC(=O)C2CCC2)CC1 | 40.8 |
| CS(=O)(=O)N1CCC(CNC(=O)C2CCCC2)CC1 | -16 |
| COC(=O)N1CCC(CNC(=O)C2CCN(S(C)(=O)=O)CC2)CC1 | -19.3 |
| COc1ncccc1C(=O)NCCn1nc(C)ccc1=O | -8.68 |
| O=C(CC1CCCC1)NCCS(=O)(=O)N1CCN(c2ccccn2)CC1 | -13 |
| O=C(NCCS(=O)(=O)N1CCN(c2ncccn2)CC1)C1CC1 | 16.5 |
| CCc1ccc(S(=O)(=O)NCCOc2ccc3nnc(C)n3n2)s1 | -11.7 |
| CC(=O)c1cccc(NC(=O)Cn2cnc(-c3ccccc3)cc2=O)c1 | -3 |
| CS(=O)(=O)N1CCN(c2ccc(Nc3ccccn3)nn2)CC1 | -6.91 |
| CC(=O)Nc1ccc(SCCCC(=O)NCC2CCCO2)nn1 (centres undefined) | -11.3 |
| O=C(CCCSc1ccc(NC(=O)C2CC2)nn1)NCC1CCCO1 (centres undefined) | -14.1 |
| COc1cc(OC)cc(C(=O)NCC(c2cccn2C)N2CCCC2)c1 (centres undefined) | 30.6 |
| COc1cccc(C(=O)NCC(c2cccn2C)N2CCCC2)c1OC (centres undefined) | 3.39 |
| COc1ccc(S(=O)(=O)NCC(c2cccn2C)N(C)C)cc1F (centres undefined) | -8.8 |
| Cc1nc(NC(=O)c2c3c(nn2C2CCS(=O)(=O)C2)CCC3)sc1C (centres undefined) | 16.2 |
| Cc1nnc(C2CCN(C(=O)c3cnc4ccccc4n3)CC2)s1 | -2.76 |

| Compound | cytotoxicity at 70.5 h [%] |
| --- | --- |
| O=S(=O)(NCCNc1cc(-n2cccn2)ncn1)c1cccs1 | 12.1 |
| CC(C)(C)c1csc(CN2CCN(S(=O)(=O)c3cccnc3)CC2)n1 | -14.8 |
| O=S(=O)(c1cccnc1)N1CCN(Cc2nc(-c3ccco3)cs2)CC1 | 0.0264 |
| O=C(c1ccsc1)N1CCC(c2nnc(C3CC3)o2)CC1 | 28.3 |
| Cn1c(-c2ccccc2)nn(CCNS(=O)(=O)c2ccccc2Cl)c1=O | 0.396 |
| Cn1c(-c2cccs2)nn(CCNS(=O)(=O)c2ccccc2Cl)c1=O | -1.9 |
| COCCNC(=O)NCCS(=O)(=O)N1CCN(c2cccc(C)c2)CC1 | -12.5 |
| O=S(=O)(c1c(F)cccc1F)N1CCC(Cn2cccn2)CC1 | -11.8 |
| O=S(=O)(NCC1(c2cccs2)CCCC1)c1cccnc1 | -4.26 |
| O=S(=O)(NCC1(c2cccs2)CCOCC1)c1cccnc1 | -6.99 |
| O=C(CSC1CCCC1)N1CCN(C(=O)C2CC2c2ccccc2)CC1 (centres undefined) | -3.24 |
| Cn1nnnc1SCC(=O)N1CCN(C(=O)C2CC2c2cccs2)CC1 (centres undefined) | 1.49 |
| O=C(NCc1ccc(F)cc1)NCC(O)(c1ccco1)C1CC1 (centres undefined) | 6.32 |
| COC(=O)c1ccc(C(=O)NCC(O)c2cccn2C)cc1 (centres undefined) | 48.7 |
| Cn1cccc1C(O)CNC(=O)COc1ccc(Cl)cc1Cl (centres undefined) | -12 |
| O=C(NCC(O)c1ccsc1)Nc1cccs1 (centres undefined) | 25.4 |
| Cc1ccsc1C(O)CNC(=O)Cc1ccc(F)cc1 (centres undefined) | 25 |
| Cc1cc(S(=O)(=O)NCC(O)c2sccc2C)ccc1F (centres undefined) | -1.45 |
| COc1ccccc1OCC(=O)NCC(O)(c1cccs1)C1CC1 (centres undefined) | -5.23 |
| COc1ccc(CC(C)(O)CNC(=O)c2cccs2)cc1 (centres undefined) | -15.5 |
| COc1ccc(CC(C)(O)CNC(=O)NCc2cccs2)cc1 (centres undefined) | -13.9 |
| O=C(CN1C(=O)CCC1=O)NCC1(O)CCc2ccccc21 (centres undefined) | 1.38 |
| O=C(Cn1c(=O)oc2ccccc21)NCC1(O)CCc2ccccc21 (centres undefined) | -6.07 |

| Compound | cytotoxicity at 70.5 h [%] |
| --- | --- |
| CC(O)(CNC(=O)c1c(F)cccc1Cl)C1CC1 (centres undefined) | -14.4 |
| COc1ccccc1OCC(=O)NCC(C)(O)C1CC1 (centres undefined) | -15.3 |
| O=S(=O)(NCC(O)c1cccs1)c1ccccc1Cl (centres undefined) | 11 |
| COC1CCN(C(=O)CCn2ccc(=O)[nH]c2=O)CC1 | 8.52 |
| Cc1cc(C)n(CC(=O)NCc2ccccn2)n1 | -10.7 |
| COc1ccc(F)cc1S(=O)(=O)N1CCC(OC)CC1 | -2.88 |
| CC(=O)c1cccc(NC(=O)Cn2cnc(-c3cccs3)cc2=O)c1 | -1.2 |
| O=C(NCC1(CO)CC1)c1ccccc1Cl | -14.1 |
| O=C(NCC1(CO)CC1)c1ccccc1C(F)(F)F | -9.3 |
| COc1nn(C)cc1C(=O)NCC(=O)Nc1cccnc1 | -10.6 |
| O=S(=O)(Cc1ccc(F)cc1)N1CCN(CC(O)C2CC2)CC1 (centres undefined) | -1.75 |
| COc1ncccc1C(=O)N1CC(c2nc(-c3ccccn3)no2)C1 | 19.5 |
| Fc1cccc(CNCC2Cn3nncc3CO2)c1 (centres undefined) | -7.02 |
| O=C(c1cocn1)N1CCC2(CC1)CC(OCC1CC1)CO2 (centres undefined) | -8.99 |
| CN(Cc1ccncc1)C1CC2(CCN(C(=O)c3ccnnc3)CC2)C1 | -9.02 |
| CCN1CCC2(CC1)CN(C(C)=O)c1ccc(C)cc12 | -7.76 |
| CN(Cc1cccnc1)C1CC2(CCN(C(=O)c3cnccn3)CC2)C1 | -7.42 |
| Cc1cc(C(=O)N2CC[C@@H]3CO[C@@H](CN4CCCC4)[C@@H]3C2)no1 | -7.99 |
| CCS(=O)(=O)N1CCN(C(=O)C(C)C)CC2(CC(=O)N(C)C2)C1 (centres undefined) | -5.47 |
| Cc1nc(CNCC2COCc3c(-c4ccoc4)nnn3C2)cs1 (centres undefined) | -6.23 |
| Cc1nc(C)n(CC2CCCN(Cc3cccc(C(N)=O)c3)C2)n1 (centres undefined) | -1.85 |
| Cc1nc(C)n(CC2CCCN(Cc3cc(C#N)ccc3F)C2)n1 (centres undefined) | 0.508 |
| CC(C)n1cc(CN2CCCN(C(=O)C3CCCN3C)CC2)cn1 (centres undefined) | -3.1 |

| Compound | cytotoxicity at 70.5 h [%] |
| --- | --- |
| Cc1nn(C)c(C)c1C1CCCN1C(=O)c1ccc2c(c1)OCCO2 (centres undefined) | -7.1 |
| CC(C)c1nc(C2CCCN(C(=O)CCc3cscn3)C2)no1 (centres undefined) | -2.82 |
| Cc1nn(C)c(Cl)c1C1CCCN1C(=O)c1ccc(C(N)=O)cn1 (centres undefined) | 54.9 |
| Cc1nn(C)c(Cl)c1C1CCCN1C(=O)c1ccncc1 (centres undefined) | 0.652 |
| CCOc1ccc(CNC(C)c2ccc3[nH]c(=O)[nH]c3c2)cc1 (centres undefined) | 1.32 |
| Cc1ccccc1C1(C(=O)NCCN2CCC(C)CC2)CCOCC1 | 17.6 |
| COc1ccccc1C1(C(=O)NCCN2CCCCC2)CCOCC1 | 15.9 |
| CC(C)(C)c1nnc(CN2CCCC2Cn2cncn2)o1 (centres undefined) | -11.3 |
| Cc1cccc(C(=O)NCc2cccnc2N(C)C)n1 | 1.42 |
| Cc1ccc(N2CCCC(NCc3nnc(-c4ccco4)o3)C2)nn1 (centres undefined) | -13.2 |
| Cc1ncsc1C(=O)N(Cc1ccccc1)C1CC1 | -19.8 |
| c1ccc(-c2nnc(CNC3CCCN(c4cccnn4)C3)o2)cc1 (centres undefined) | -16.9 |
| COc1ncccc1CNC(=O)c1cc(Cl)ccn1 | -8.01 |
| O=C(O)c1cccc(S(=O)(=O)N2CCOc3ccccc32)c1 | -12.8 |
| CN(C)c1cc(CNC(=O)Nc2ccc(N3CCCC3)nc2)ccn1 | 1.53 |
| CCC(NC(=O)C1CC1)c1ccccc1OCC(=O)N1CCCC1 (centres undefined) | -6.4 |
| CCC(NC(=O)COC)c1ccccc1OCC(=O)N1CCCC1 (centres undefined) | -4.2 |
| COc1ncccc1CNC(=O)c1ccc(C)[nH]c1=O | 12.6 |
| CN(C)c1ccc(CNC(=O)Nc2ccc(S(C)(=O)=O)nc2)cc1 | -7.69 |
| Cc1cccc(NC(=O)C2CSCN2C(=O)c2cnccn2)c1C (centres undefined) | -7.92 |
| Cc1cnn(C2CCCN(C(=O)c3ccc(-n4cnnn4)cc3)C2)c1 (centres undefined) | 0.981 |
| Cc1ccc(NC(=O)C2CSCN2C(=O)c2cccnc2)c(C)c1 (centres undefined) | 6.06 |
| c1ccc(-n2ccc(CNC3CCc4ncnn4C3)n2)cc1 (centres undefined) | -5.75 |

| Compound | cytotoxicity at 70.5 h [%] |
| --- | --- |
| c1ccc(Cc2nnc(CN3CCCC(Cn4cncn4)C3)o2)cc1 (centres undefined) | -13.3 |
| Cc1ccc(-c2noc(CN3CCn4c(nnc4C4CC4)C3)n2)cc1 | -16 |
| c1cncc(-c2noc(CN3CCn4c(nnc4C4CC4)C3)n2)c1 | -1.9 |
| Cc1noc(C)c1S(=O)(=O)NC(=O)COc1cccc(C(C)C)c1 | -2.21 |
| Cc1noc(C)c1S(=O)(=O)NC(=O)COc1ccc(C(C)C)cc1 | -9.11 |
| O=C(Nc1ccccc1F)C1=NOC2(CCNCC2)C1 | -2.62 |
| O=C(Nc1ccccc1)C1=NOC2(CCNCC2)C1 | -6.36 |
| COCCN1CCC12CCN(C(=O)Cc1cccs1)C2 (centres undefined) | -7.8 |
| Cc1cc(CN2C[C@@H]3COC[C@]3(COCc3csc(C)n3)C2)no1 | 2.9 |
| Cc1ccnc(OC[C@@]23CCO[C@@H]2CCN(C2CCC2)C3)n1 | 4.5 |
| Cc1ccnc(OC[C@@]23CCO[C@@H]2CCN(c2ncccn2)C3)n1 | 5.78 |
| CCS(=O)(=O)NC[C@]12COC[C@H]1CN(Cc1ccsc1)C2 | 7.84 |
| Cn1cccc1C(=O)N1CCC2(CCCN2c2ncccn2)CC1 | -13.8 |
| CC(C)CN1CC[C@@H]2[C@@H]1CCN2S(=O)(=O)c1cn(C)cn1 | -10.9 |
| COCCN1CCC2(CC1)CN(C(C)=O)c1ccc(C)cc12 | 4.91 |
| Cc1ncnc2c1CCN(Cc1nccs1)CC2 | -5.22 |
| Cc1ccc(N2CCC3(CC2)CNC(=O)CO3)nn1 | -4.26 |
| Cc1nc(COC[C@@]23CCC[C@@H]2CN(Cc2nccs2)C3)cs1 | -7.37 |
| CS(=O)(=O)NC[C@]12COC[C@H]1CN(CCc1ccccc1)C2 | -8.06 |
| CN1CCCCC12CCN(C(=O)c1cccn1C)CC2 | -7.36 |
| CCS(=O)(=O)NC[C@]12COC[C@H]1CN(Cc1cccnc1)C2 | 7.34 |
| Cn1nc(COc2cccnc2)c2c1CCN(Cc1ccco1)C2 | 4.18 |
